In publication PMC7787448, “Development of an orally-administrable tumor vasculature-targeting therapeutic using annexin A1-binding D-peptides” (PLoS ONE, 2021):
Values joined by “and” are separate entries in the source; they are usually repeats but may differ in a detail not shown here. Equal entries are not always repeated. Non-standard residues stand in square brackets, D forms with d. Residues, ends and D or L forms follow the SMILES beside them. No end group written: not given here. *: point of attachment. Biotin = O=C1N[C@H]2[C@H](CS[C@H]2CCCCC(=O)*)N1

How the values were obtained:
[1] = system: C6-Luc brain tumor; assay: Near infra-red fluorescence whole body imaging of IRDye-conjugated D-peptides in brain tumor-bearing mice; format: in vivo, mouse; conditions: IRDye 800CW conjugates, tail vein, nude mice with C6-Luc brain tumors, IVIS imaging 15 min to 144 h
Procedure: C6-Luc cells (4.8 x10^4 in 4 μl PBS) were injected into the brain striatum of Balb/c nu/nu mice using a stereotaxic frame as described [20]. […] Five to seven days later, mice underwent imaging for luciferase-expressing tumors. To do so, 100μl luciferin (30 mg/ml PBS) was injected peritoneally, and then mice were anesthetized under isoflurane gas (20 ml/min) supplemented with oxygen (1 ml/min) and placed under a camera equipped with a Xenogen IVIS 200 imager at AIST animal facility. Photon numbers were measured for 1–10 sec or for 1 min.
Peptides were conjugated with IRDye 800CW maleimide (Li-Cor) through the cysteine residue at room temperature for 2 hours according to the manufacturer’s instruction. After reverse-phase HPLC purification, the conjugate was dissolved in DMSO and 6% glucose to a final concentration of 0.2 μM. The C6-Luc brain tumor model mouse was generated in nude mice as described above. When photon number reached 5x10^4, each IRDye-conjugated D-peptide (100 μl) was injected intravenously through the tail vein. Near infra-red fluorescence in the mouse was monitored 15 min after injection using an IVIS system and daily over 6 days.
Whole body imaging of infra-red fluorescence was monitored using an IVIS imager.

[2] = molecular target: T1, recombinant full-length ANXA1 (Homo sapiens, UniProt P04083); set-up: method as in PMID 32921792; conditions: IF7 with ANXA1; cited from earlier work
T1 construct: Recombinant, full-length ANXA1 was expressed using the baculovirus expression system; honeybee melittin signal peptide (N, cleaved yes); His8-tag (N, cleaved yes); made in house; host or cells: Sf9 insect cells (baculovirus), secreted
T1 sequence (P04083 1-346): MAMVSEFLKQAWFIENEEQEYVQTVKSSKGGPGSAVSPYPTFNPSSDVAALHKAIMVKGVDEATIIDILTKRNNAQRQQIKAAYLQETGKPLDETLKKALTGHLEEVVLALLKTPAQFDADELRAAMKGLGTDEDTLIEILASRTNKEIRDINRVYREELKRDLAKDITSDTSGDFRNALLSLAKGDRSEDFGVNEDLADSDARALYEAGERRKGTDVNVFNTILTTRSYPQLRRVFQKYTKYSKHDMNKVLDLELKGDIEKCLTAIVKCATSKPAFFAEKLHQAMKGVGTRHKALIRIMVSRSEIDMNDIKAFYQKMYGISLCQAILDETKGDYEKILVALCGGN

[3] = molecular target: T2, synthetic human MC16 peptide (ANXA1 N-terminus) (Homo sapiens, UniProt P04083); assay: Plate binding assay of biotinylated dTIT7 to MC16-coated wells (streptavidin-peroxidase, A450); conditions: N-terminal biotinylated dTIT7 added to MC16-coated plastic wells, peroxidase-streptavidin colour reaction, read-out: Kd of dTIT7 bound to WT MC16
T2 construct: chemically synthesized ANXA1 N-terminus (1–15 residues plus a cysteine at 16); purchased Bio-Synthesis (Lewisville, TX); host or cells: chemical synthesis
Procedure: To assess dTIT7 binding, wells of Sulfhydryl-BIND Surface Maleimide plates (Corning) were coated 20 hours with wild type (WT) and mutant L-MC16 in water at 4°C. After washing with PBS containing 0.02% Tween 20 (PBST), wells were blocked 1 hour with 10% superblock (Thermo) in PBST at room temperature. Biotinylated dTIT7 (10 μg dissolved in 10% superblock in PBST (1 mL) prepared as above was added to each well at 100 μl/well and incubated 30 min at room temperature for. After three PBST washes, 100 μl streptavidin-peroxidase (0.2 μg/ml) in 10% superblock in PBST containing 2% bovine serum albumin was added to each well and incubated 30 min. After three PBST washes, 100 μL of the peroxidase substrate one-step-TMB (Thermo) was added and incubated until the color developed. The reaction was stopped by adding 100 μl 2N sulfuric acid, and absorbance at 450 nm monitored using an ELISA plate reader. […]
Fig 2 Binding of dTIT7 to an ANXA1 N-terminal domain peptide or to full-length ANXA1 protein. […] In A and B, biotinylated dTIT7 peptide (1 μg/mL) was added to each MC16-coated plastic well and binding of peptide to MC16 was detected by a peroxidase-conjugated streptavidin and peroxidase color reaction. […]

[4] = molecular target: T3, ANXA1 N-terminal peptide L-MC16 (Homo sapiens); assay: plate binding assay (ELISA)
T3 chain: MAMVSEFLKQAWFIEC

[5] = molecular target: T4, Annexin A1 (Homo sapiens, UniProt P04083); assay: QCM
T4 chain: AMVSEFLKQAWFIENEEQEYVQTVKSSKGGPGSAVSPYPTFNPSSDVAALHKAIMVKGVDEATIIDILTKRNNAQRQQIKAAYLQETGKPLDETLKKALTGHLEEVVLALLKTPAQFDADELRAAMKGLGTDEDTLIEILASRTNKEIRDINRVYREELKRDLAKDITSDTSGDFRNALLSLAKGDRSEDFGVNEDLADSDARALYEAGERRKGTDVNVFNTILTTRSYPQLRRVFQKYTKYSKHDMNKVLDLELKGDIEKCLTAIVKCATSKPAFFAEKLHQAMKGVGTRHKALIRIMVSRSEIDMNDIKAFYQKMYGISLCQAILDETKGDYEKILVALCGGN

For CSCC[C@@H](N)C(=O)N1CCC[C@@H]1C(=O)N[C@@H](C(=O)N[C@H](CC(C)C)C(=O)N[C@@H](C(=O)N[C@H](Cc1ccccc1)C(=O)N[C@H](CCCNC(=N)N)C(=O)O)[C@H](C)O)[C@H](C)O [dMPT7] (H-[dM][dP][dT][dL][dT][dF][dR]-OH; N-terminus and C-terminus assumed), the “Localization of near infra-red fluorescence after intravenous injection” value (“Localization” for short) [1] was “signals in brain, kidney and other organs”.

In the case of CC(C)C[C@@H](NC(=O)[C@@H](CC(C)C)NC(=O)[C@@H](CO)NC(=O)[C@H](NC(=O)[C@H]1CCCN1C(=O)[C@H](N)CO)[C@H](C)O)C(=O)N[C@H](Cc1ccccc1)C(=O)O [dSPT7] (H-[dS][dP][dT][dS][dL][dL][dF]-OH; N-terminus and C-terminus assumed), the “Localization” value [1] is reported as “signals in brain, kidney and other organs”.

For “IFLLWQR (linear all-L peptide; any N-terminal Cys/linker or conjugate left out) [IF7]”, the Kd [2] is listed as 63.8 nM.

In the case of CC[C@@H](C)[C@@H](NC(=O)[C@H](N)[C@H](C)O)C(=O)N[C@@H](C(=O)N[C@H](Cc1c[nH]c2ccccc12)C(=O)N1CCC[C@@H]1C(=O)N[C@@H](C(=O)N[C@H](CCSC)C(=O)O)[C@H](C)O)[C@H](C)O [dTIT7], the Kd [3] is reported as 8.5 nM and 8.56 nM.

For CC(C)C[C@@H](N)C(=O)N[C@H](CC(C)C)C(=O)N[C@H](CO)C(=O)N[C@H](Cc1c[nH]c2ccccc12)C(=O)N1CCC[C@@H]1C(=O)N[C@H](CO)C(=O)N[C@H](C)C(=O)O [dLLS7] (H-[dL][dL][dS][dW][dP][dS][dA]-OH; N-terminus and C-terminus assumed), the “Localization” value [1] was “signals in brain, kidney and other organs”.

B1: dTIT7 (peptide)
chain: Biotin-[dT][dI][dT][dW][dP][dT][dM]
B1 gave a Kd [4] of 8.5 nM.

B2: dTIT7 (peptide)
chain: [dT][dI][dT][dW][dP][dT][dM]
B2 gave a Kd [5] of 46.6 nM.

B3: dLRF7 (peptide)
chain: [dL][dR][dF][dP][dT][dV][dL]
Molecule B3 has a Kd [5] of 31.2 nM.
